This is an account of results in article PMC11600199 (JACS Au, 2024).

One data set in a line: Experimental pKa. It is filed as physicochemical. The conditions noted are these: amine hydrochlorides.
For data set [1] the following is noted: human liver microsomes. Background: Liver microsomes are vesicles of endoplasmic reticulum, rich in cytochrome P450 enzymes.
The nature of data set [2]: Kinetic solubility in phosphate-buffered saline pH 7.4. Conditions: 25 °C, pH 7.4, aqueous buffer, kinetic from dmso stock.
Data set [3] in a line: Chemical stability in aqueous 1 M HCl or 1 M NaOH and on shelf storage. It is filed as physicochemical. The conditions noted are these: aqueous 1 M hydrochloric acid or aqueous 1 M sodium hydroxide, room temperature, 1 day.

In brackets after ≈: the same amount, converted by molar mass.

`CC(C)(C)N.Cl` [tert-butyl amine hydrochloride]: the “pKa (exp.)” value in the data set “Experimental pKa” was determined as 10.69.
As usually defined, the solubility (kinetic) is solubility judged after dilution from a stock solution rather than from solid. On to `CC(C)N(Cc1ccccc1)C(=O)C(C)(C)C` [Tebutam], for which the CLint in data set [1] is recorded as 57 mg min^–1 μL^–1. In data set [2], this compound yielded a kinetic solubility at 2 h of 324 µM (≈ 75.6 µg/mL).
`CN(Cc1ccc(C(C)(C)C)cc1)Cc1cccc2ccccc12` [Butenafine] displayed a CLint in data set [1] of 30 mg min^–1 μL^–1. Further, in data set [2], the kinetic solubility at 2 h was 10 µM (≈ 3.17 µg/mL).
As for `FC(F)(F)C1(c2cccnc2)CCC1` [12a], the “decomposition on treatment with acid or base” value in data set [3] is listed as “did not lead to any decomposition”.
With `CCc1cc(C)cc(CC)c1-c1c(OC(=O)C(C)(C)C)n2n(c1=O)CCOCC2` [Pinoxaden], the kinetic solubility at 2 h in data set [2] is 358 µM (≈ 143 µg/mL).
The compound `CC(C)(C)C(=O)NNCc1ccccc1` [Pivhydrazine] displayed a solubility (kinetic) at 2 h in data set [2] of no less than 400 µM.
